Where two headings read alike, the source gives them in different places.
Key:
[1] = target: human RORγt ligand binding domain (RORγt LBD) (Homo sapiens (Human), UniProt P51449); test: RORγt ThermoFluor® assay (thermal shift binding); conditions: read-out: ThermoFluor® Assay, Kd
Method in brief: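 Binding was inferred from thermal stabilisation (ΔTm) of the E. coli-expressed RORγt LBD (0.065 mg/mL), monitored by 1,8-ANS (60 μM) emission at 500 nm during a 1 °C/min ramp. Buffer was Hepes 100 mM pH 7.0 with NaCl, GSH and Tween-20.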

[2] = target: full-length human RORγt (Homo sapiens (Human), UniProt P51449); test: RORγt (full-length human) reporter assay, Conditions B or C; assay type: cell-based; conditions: for RORγt (FL) Reporter Assay B or C, % inhibition (value marked *): marked *: footnote not given; for inhibition at 3 µM: at 3 μM compound concentration; for inhibition at 6 µM: read-out: RORγt (FL) Reporter Assay B or C, % inhibition @ 6 μM, Conditions B or C
Sequence of full-length human RORγt (P51449 other isoform, or with tags, fused parts or gaps): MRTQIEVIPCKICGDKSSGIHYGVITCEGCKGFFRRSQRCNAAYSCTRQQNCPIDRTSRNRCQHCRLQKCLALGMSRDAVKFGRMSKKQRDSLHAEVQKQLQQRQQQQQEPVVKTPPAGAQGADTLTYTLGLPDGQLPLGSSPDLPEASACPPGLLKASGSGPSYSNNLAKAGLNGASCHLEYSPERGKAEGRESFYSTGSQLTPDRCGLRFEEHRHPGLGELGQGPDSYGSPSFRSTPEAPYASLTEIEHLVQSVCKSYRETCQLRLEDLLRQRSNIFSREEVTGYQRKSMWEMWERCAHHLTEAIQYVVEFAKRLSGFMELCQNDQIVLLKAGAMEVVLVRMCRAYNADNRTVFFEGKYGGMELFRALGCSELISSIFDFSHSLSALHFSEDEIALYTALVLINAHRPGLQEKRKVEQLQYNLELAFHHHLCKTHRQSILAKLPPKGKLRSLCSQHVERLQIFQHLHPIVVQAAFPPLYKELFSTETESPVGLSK
Method in brief: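 Readout is dual luciferase: firefly (GAL4-driven) normalized to DMSO-only and saturating-reference controls, then to CMV-Renilla. Full-length human RORγt fused to GAL4-DBD was transiently expressed in HEK293T; compound exposure ran overnight (16-20 h) starting 4-6 h after transfection, final FBS 1.3%, DMSO 0.1%.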

[3] = Conditions B or C, read-out: RORγt (FL) Reporter Assay B or C, IC50
[4] = read-out: RORγt (FL) Reporter Assay B or C, % inhibition
[5] = read-out: RORγt (FL) Reporter Assay B or C, IC50
[6] = RORγt (FL) Reporter Assay B or C, IC50 (μM), Conditions B or C

Sequence of human RORγt ligand binding domain (RORγt LBD) (P51449 other isoform, or with tags, fused parts or gaps): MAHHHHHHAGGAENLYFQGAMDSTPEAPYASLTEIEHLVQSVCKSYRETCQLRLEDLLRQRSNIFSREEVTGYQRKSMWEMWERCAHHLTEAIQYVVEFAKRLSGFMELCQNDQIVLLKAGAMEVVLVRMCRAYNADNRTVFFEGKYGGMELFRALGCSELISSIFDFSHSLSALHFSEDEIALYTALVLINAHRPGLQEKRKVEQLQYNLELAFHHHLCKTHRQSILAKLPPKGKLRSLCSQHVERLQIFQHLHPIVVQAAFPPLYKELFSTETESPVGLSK

Row | SMILES | Kd [1] [nM] | RORγt (FL) Reporter Assay B or C, % inhibition (value marked *) ([2]; Conditions B or C) | IC50 [2, 3] [µM] | inhibition at 3 µM [2, 4] [%] | IC50 [2, 5] [µM] | other results
1 | C[C@H]1CCCN1C(=O)c1nc(C(=O)NCC(C)(C)O)sc1-c1cnc(N[C@H](C)C(F)(F)F)cc1C(F)(F)F [Example 54, N-(2-Hydroxy-2-methylpropyl)-4-((S)-2-methylpyrrolidine-1-carbonyl)-5-(4-(trifluoromethyl)-6-(((R)-1,1,1-trifluoropropan-2-yl)amino)pyridin-3-yl)thiazole-2-carboxamide] | 12 | 109* % | 0.046 |  |  | 
2 | O=C(N[C@@H]1CCC[C@H]1O)c1nc(C(=O)N2C3CCC2CC3)c(-c2cnc(N[C@@H](C3CC3)C(F)(F)F)cc2C(F)F)s1 [Example 439, 4-((1s,4s)-7-Azabicyclo[2.2.1]heptane-7-carbonyl)-5-[6-[[(1S)-1-cyclopropyl-2,2,2-trifluoro-ethyl]amino]-4-(difluoromethyl)-3-pyridyl]-N-[(1R,2R)-2-hydroxycyclopentyl]thiazole-2-carboxamide] | 0.27 |  |  | 102 | 0.01 | 
3 | C[C@H]1CCCCN1C(=O)c1nc(C(=O)NCC(C)(C)O)sc1-c1cnc(N[C@H]2CCCCC2(F)F)cc1C(F)(F)F (relative stereo) [Example 32, 5-(6-(((S*)-2,2-Difluorocyclohexyl)amino)-4-(trifluoromethyl)pyridin-3-yl)-N-(2-hydroxy-2-methylpropyl)-4-((S)-2-methylpiperidine-1-carbonyl)thiazole-2-carboxamide] | 0.26 |  | 0.0022 |  |  | inhibition at 6 µM [2]: 109%
4 | C[C@H]1CCCN1C(=O)c1nc(C(=O)NC[C@@H](O)C(F)(F)F)sc1-c1cnc(NC(C)(C)C)cc1C(F)(F)F (relative stereo) [Example 354, 5-(6-(tert-Butylamino)-4-(trifluoromethyl)pyridin-3-yl)-4-((S)-2-methylpyrrolidine-1-carbonyl)-N—((R*)-3,3,3-trifluoro-2-hydroxypropyl)thiazole-2-carboxamide] | 0.97 |  |  | 93 | 0.015 | 
5 | C[C@H]1CCCN1C(=O)c1nc(C(=O)NCC(C)(C)O)sc1-c1cncc(NC2CCCCC2)c1C#N [Comparator Example 2, (S)-5-(4-Cyano-5-(cyclohexylamino)pyridin-3-yl)-N-(2-hydroxy-2-methylpropyl)-4-(2-methylpyrrolidine-1-carbonyl)thiazole-2-carboxamide, reference compound] | 5800 |  |  |  |  | IC50 ([2]; HEK293T cells, read-out: RORγt (FL) Reporter Assay B or C, IC50): 3 µM
6 | CC[C@H](Nc1cc(C(F)F)c(-c2sc(C(=O)N[C@H]3CC[C@H]3O)nc2C(=O)N2CCC[C@@H]2C)cn1)C(F)(F)F (relative stereo) [Example 380, 5-(4-(Difluoromethyl)-6-(((S)-1,1,1-trifluorobutan-2-yl)amino)pyridin-3-yl)-N-((1S*,2R*)-2-hydroxycyclobutyl)-4-((S)-2-methylpyrrolidine-1-carbonyl)thiazole-2-carboxamide] | 1.6 |  |  | 108 | 0.018 | 
7 | C[C@H]1CCCN1C(=O)c1nc(C(=O)N[C@H]2C[C@H](O)C2)sc1-c1cnc(NC(C)(C)C)cc1C(F)F [Example 400, 5-(6-(tert-Butylamino)-4-(difluoromethyl)pyridin-3-yl)-N-((1R,3S)-3-hydroxycyclobutyl)-4-((S)-2-methylpyrrolidine-1-carbonyl)thiazole-2-carboxamide] | 13 |  |  | 84 | 0.056 | 
8 | C[C@H]1CCCN1C(=O)c1nc(C(=O)NCC(C)(C)O)sc1-c1cnc(NC2(C)CCC2)cc1C(F)(F)F [Example 77, (S)—N-(2-Hydroxy-2-methylpropyl)-5-(6-((1-methylcyclobutyl)amino)-4-(trifluoromethyl)pyridin-3-yl)-4-(2-methylpyrrolidine-1-carbonyl)thiazole-2-carboxamide] | 1.3 | 108* % | 0.017 |  |  | 
9 | C[C@H](Nc1cc(C(F)(F)F)c(-c2sc(C(=O)NCC(C)(C)O)nc2C(=O)N2CCC[C@@H]2C)cn1)C1CCC1 (relative stereo) [Example 175, 5-(6-(((S*)-1-Cyclobutylethyl)amino)-4-(trifluoromethyl)pyridine-3-yl)-N-(2-hydroxy-2-methylpropyl)-4-(((S)-2-methylpyrrolidine-1-carbonyl)thiazole-2-carboxamide] | 5.8 |  | 0.044 |  |  | RORγt (FL) Reporter Assay B or C, % inhibition (value marked ***) ([2]; Conditions B or C, marked ***: footnote not given): 119*** %
10 | C[C@H]1CC(F)(F)CN1C(=O)c1nc(C(=O)N[C@H](C)C(C)(C)O)sc1-c1cnc(NC2(C)CCC2)cc1C(F)(F)F [Example 196, 4-((S)-4,4-Difluoro-2-methylpyrrolidine-1-carbonyl)-N—((R)-3-hydroxy-3-methylbutan-2-yl)-5-(6-((1-methhylcyclobutyl)amino)-4-(trifluoromethyl)pyridine-3-yl)thiazole-2-carboxamide] | 0.64 | 109* % | 0.027 |  |  | 
11 | CC[C@H](Nc1cc(C(F)F)c(-c2sc(C(=O)N[C@H](C)CO)nc2C(=O)N2C3CCC2CC3)cn1)C(F)(F)F [Example 227, 4-((1s,4s)-7-Azabicyclo[2.2.1]heptane-7-carbonyl)-5-(4-(difluoromethyl)-6-(((1S)-1-(trifluoromethyl)propyl)amino)-3-pyridyl)-N-((1R)-2-hydroxy-1-methyl-ethyl)thiazole-2-carboxamide] | 4.6 | 95* % |  |  |  | IC50 [2, 6]: 0.014 µM
12 | C[C@H]1CCCN1C(=O)c1nc(C(=O)NCC(O)C(F)(F)F)sc1-c1cnc(NC(C)(C)C)cc1C(F)(F)F (stereo in doubt) [Example 352, 5-[6-(tert-Butylamino)-4-(trifluoromethyl)-3-pyridyl]-4-(2-methylpyrrolidine-1-carbonyl)-N-(3,3,3-trifluoro-2-hydroxy-propyl)thiazole-2-carboxamide] | 1.1 |  |  | 103 | 0.042 | 
13 | C[C@H](NC(=O)c1nc(C(=O)N2CC(F)(F)C[C@@H]2C)c(-c2cnc(NC(C)(C)C)cc2C(F)F)s1)C(C)(C)O [Example 257, 5-[6-(tert-Butylamino)-4-(difluoromethyl)-3-pyridyl]-4-[(2S)-4,4-difluoro-2-methyl-pyrrolidine-1-carbonyl]-N-[(1S)-2-hydroxy-1,2-dimethyl-propyl]thiazole-2-carboxamide] | 1.8 |  |  | 98 | 0.031 | 
14 | C[C@H]1CCCCN1C(=O)c1nc(C(=O)NCC(C)(C)O)sc1-c1cnc(NC2CCCCC2)cc1C(F)F [Example 34, (S)-5-(6-(Cyclohexylamino)-4-(difluoromethyl)pyridin-3-yl)-N-(2-hydroxy-2-methylpropyl)-4-(2-methylpiperidine-1-carbonyl)thiazole-2-carboxamide] | 0.29 |  | 0.0069 |  |  | inhibition at 6 µM [2]: 105%
15 | C[C@H]1CCCN1C(=O)c1nc(C(=O)NC[C@H](O)C(C)(C)O)sc1-c1cnc(NC(C)(C)C)cc1C(F)(F)F (single isomer, unassigned) [Example 244, 5-(6-(tert-Butylamino)-4-(trifluoromethyl)pyridin-3-yl)-N—((S*)-2,3-dihydroxy-3-methylbutyl)-4-((S)-2-methylpyrrolidine-1-carbonyl)thiazole-2-carboxamide] | 6.2 | 106* % | 0.0083 |  |  | 
16 | CC[C@H](Nc1cc(C(F)(F)F)c(-c2sc(C(=O)N[C@H]3COC[C@@H]3O)nc2C(=O)N2C3CCC2CC3)cn1)C(F)(F)F [Example 156] | 1 | 102* % |  |  |  | IC50 [2, 6]: 0.044 µM
17 | C[C@H]1CC(F)(F)CN1C(=O)c1nc(C(=O)NCC(C)(C)O)sc1-c1cnc(NC(C)(C)C2CC2)cc1C(F)F [Example 106, (S)-5-(6-((2-Cyclopropylpropan-2-yl)amino)-4-(difluoromethyl)pyridin-3-yl)-4-(4,4-difluoro-2-methylpyrrolidine-1-carbonyl)-N-(2-hydroxy-2-methylpropyl)thiazole-2-carboxamide] | 0.79 | 117* % | 0.022 |  |  | 
18 | C[C@H]1CCCN1C(=O)c1nc(C(=O)NCC(C)(C)O)sc1-c1cnc(N[C@H]2CCCC2(F)F)cc1C(F)(F)F (single isomer, unassigned) [Example 279, 5-(6-(((S*)-2,2-Difluorocyclopentyl)amino)-4-(trifluoromethyl)pyridin-3-yl)-N-(2-hydroxy-2-methylpropyl)-4-((S)-2-methylpyrrolidine-1-carbonyl)thiazole-2-carboxamide] | 18 |  |  |  | 0.062 | inhibition at 1 µM ([2]; at 1 μM compound concentration, read-out: RORγt (FL) Reporter Assay B or C, % inhibition): 109%
19 | C[C@H](Nc1cc(C(F)F)c(-c2sc(C(=O)N[C@H]3CC[C@H](O)C3)nc2C(=O)N2CC(F)(F)C[C@@H]2C)cn1)C(F)(F)F [Example 415, 4-[(2S)-4,4-Difluoro-2-methyl-pyrrolidine-1-carbonyl]-5-[4-(difluoromethyl)-6-[[(1S)-2,2,2-trifluoro-1-methyl-ethyl]amino]-3-pyridyl]-N-[(1S,3S)-3-hydroxycyclopentyl]thiazole-2-carboxamide] | 1.1 |  |  | 97 | 0.064 | 

Reference: patent publication US10975068B2, “6-aminopyridin-3-yl thiazoles as modulators of RORγT” (Janssen Pharmaceutica NV, priority 2016, dated 2021)
